The source made the active and inactive calls. No cut-off for these calls is given here.
Each molecule was assayed on Eimeria tenella (assay: In vivo anti-coccidial activity determined at a dose of <16 p.p.m. (battery efficacy against Eimeria tenella); IA means Inactive).
Type: functional, organism-based

Q: How did the Activity turn out when `CC1CC=C(c2c(Cl)cc(-n3ncc(=O)[nH]c3=O)cc2Cl)CC1` (centres undefined) was run?
A: The Activity was “inactive”.

Q: With `O=c1cnn(-c2ccc(I)c(C(F)(F)F)c2)c(=O)[nH]1` as the molecule, how does the Activity read?
A: Its Activity is “inactive”.

Q: How did the Activity turn out when “(1-Cyclopentyl-vinyl)-trimethyl-stannane” was run?
A: The Activity was “inactive”.

Q: With “[1-(2,5-Dimethoxy-phenyl)-vinyl]-trimethyl-stannane” as the molecule, how does the Activity read?
A: Its Activity is “inactive”.

Q: (1-Cyclohexyl-vinyl)-trimethyl-stannane was tested. Which Activity did it give?
A: Its Activity is “inactive”.

Q: How did the Activity turn out when `O=C(O)c1nn(-c2ccc(I)c(C(F)(F)F)c2)c(=O)[nH]c1=O` was run?
A: Its Activity is “inactive”.

Q: `C=C(c1c(Cl)cc(-n2ncc(=O)[nH]c2=O)cc1Cl)C1CCCC1` was tested. Which Activity did it give?
A: The Activity was “inactive”.

Q: “Trimethyl-(4-methyl-cyclohex-1-enyl)-stannane” was tested. Which Activity did it give?
A: Its Activity is “inactive”.

Q: For `C=C(c1c(Cl)cc(-n2ncc(=O)[nH]c2=O)cc1Cl)C1CCCCC1`, which Activity is on record?
A: Its Activity is “inactive”.
